Test results taken from patent EP0195316A1, “Quinolonecarboxylic acid derivatives” (KYORIN PHARMACEUTICAL CO., LTD., priority 1985, dated 1986).
≈ marks a conversion by molar mass, not a printed value. Where two headings read alike, the source gives them in different places.

Tests used:
Format in all cases: cell-based
[1] = test system: S. aureus IID 670 (Terajima); assay: MIC, in vitro antibacterial activity (standard strains); details: Staphylococcus aureus, IID670, 10^6 cells/ml, Gram +
[2] = test system: Streptococcus pyogenes (S-8); assay: as above; details: Streptococcus pyogenes (S-8), 10^6 cells/ml, Gram +; read-out: MIC
S. pyogenes IID 692 = assay: as above; details: Streptococcus pyogenes, IID692; S. pyogenes IID 692, 10^6 cells/ml, Gram +
S. pneumoniae IID 552 = assay: as above; details: Streptococcus pneumoniae, IID552; S. pneumoniae IID 552, 10^6 cells/ml, Gram +; read-out: MIC
E. faecalis IID 682 = assay: as above; details: Enterococcus faecalis, IID682; E. faecalis IID 682, 10^6 cells/ml, Gram +
[3] = test system: Escherichia coli NIHJ JC-2; assay: as above; details: NIHJJC2; Escherichia coli NIHJ JC-2, 10^6 cells/ml, Gram -; read-out: MIC
E. coli ATCC 10536 = assay: as above; details: Escherichia coli, ATCC10536
[4] = test system: Proteus vulgaris IFO 3167; assay: as above; details: Proteus vulgaris, IFO3167
P. mirabilis IID 994 = assay: as above; details: Proteus mirabilis, IID994
P. morganii IID 602 = assay: as above; details: Morganella morganii, IID602; P. morganii IID 602, 10^6 cells/ml, Gram -
[5] = test system: Enterobacter cloacae IID 977; assay: as above; details: IID977; Enterobacter cloacae IID 977, 10^6 cells/ml, Gram -
[6] = test system: Serratia marcescens IID 618; assay: as above; details: IID618; Serratia marcescens IID 618, 10^6 cells/ml, Gram -
[7] = test system: Pseudomonas aeruginosa V-1; assay: as above; details: V1; Pseudomonas aeruginosa V-1, 10^6 cells/ml, Gram -
[8] = test system: Yersinia enterocolitica IID 981; assay: as above; details: IID981; Yersinia enterocolitica IID 981, 10^6 cells/ml, Gram -
[9] = test system: Acinetobacter anitratus IID 876; assay: as above; details: Acinetobacter calcoaceticus, IID876; Acinetobacter anitratus IID 876, 10^6 cells/ml, Gram -
[10] = test system: Bacteroides fragilis GM 7000; assay: as above; details: GM7000; Bacteroides fragilis GM 7000, 10^6 cells/ml, Gram -
B. fragilis 8503 = assay: as above; details: Bacteroides fragilis; B. fragilis 8503, 10^6 cells/ml, Gram -
F. varium KYA 8501 = assay: as above; details: Fusobacterium varium, KYA8501; F. varium KYA 8501, 10^6 cells/ml, Gram -; read-out: MIC
[11] = test system: Eubacterium lentum GAI 5242; assay: as above; details: Eggerthella lenta, GAI5242; Eubacterium lentum GAI 5242, 10^6 cells/ml, Gram +
[12] = test system: Propionibacterium acens 11828; assay: as above; details: Propionibacterium acens 11828, 10^6 cells/ml, Gram +
C. ramosum = assay: as above; details: Thomasclavelia ramosa, 10^6 cells/ml, Gram +
Pst. microns UPI 5464-1 = assay: as above; details: Pst. microns UPI 5464-1, 10^6 cells/ml, Gram +
[13] = test system: Veillonella parvula KYA 10790; assay: as above; details: KYA10790; Veillonella parvula KYA 10790, 10^6 cells/ml, Gram -
S. pyogenes = assay: MIC, in vitro antibacterial activity (clinical isolates); details: Streptococcus pyogenes; clinical isolates S. pyogenes, No. of strains 6; read-out: MIC
S. pneumoniae = assay: as above; details: Streptococcus pneumoniae; clinical isolates S. pneumoniae, No. of strains 6; read-out: MIC
N. gonorrhoeae = assay: as above; details: Neisseria gonorrhoeae, No. of strains 16
B. catarrhalis = assay: as above; details: Moraxella catarrhalis; clinical isolates B. catarrhalis, No. of strains 21; read-out: MIC
E. coli = assay: as above; details: Escherichia coli, No. of strains 25
Method: (§1) Minimal inhibitory concentrations (MICs) were determined in accordance with the method recommended by Japan Society of Chemotherapy.

S. aureus = assay: as above; details: Staphylococcus aureus, No. of strains 21
Method: as §1

P. mirabilis = assay: as above; details: Proteus mirabilis, No. of strains 10
P. vulgaris = assay: as above; details: Proteus vulgaris, No. of strains 6
Alcaligenes sp. = assay: as above; details: No. of strains 9
E. cloacae IID 977 = test system: E. cloacae IID 977
S. marcescens IID 618 = test system: S. marcescens IID 618
P. aeruginosa IFO 1210 = test system: P. aeruginosa IFO 1210
[14] = E. cloacae IID 977, Conc. of Drugs 2MIC
[15] = E. cloacae IID 977, Conc. of Drugs 4MIC
[16] = S. marcescens IID 618, Conc. of Drugs 2MIC
[17] = S. marcescens IID 618, Conc. of Drugs 4MIC
[18] = P. aeruginosa IFO 1210, Conc. of Drugs 2MIC
[19] = P. aeruginosa IFO 1210, Conc. of Drugs 4MIC

## NC1CCN(c2c(F)cc3c(=O)c(C(=O)O)cn(C4CC4)c3c2Cl)C1 (stereo not drawn) [Example 25, 7-(3-Amino-l-pyrrolidinyl)-8-chloro-l-cyclopropyl-6-fluoro-1,4-dihydro-4-oxo-3-quinolinecarboxylic acid]
[1]
  MIC: 0.05 µg/mL
[2]
  MIC: 0.05 µg/mL (≈ 0.137 µM)
S. pyogenes IID 692
  MIC: 0.1 µg/mL
S. pneumoniae IID 552
  MIC: 0.1 µg/mL (≈ 0.273 µM)
E. faecalis IID 682
  MIC: 0.1 µg/mL
[3]
  MIC: ≤ 0.006 µg/mL
E. coli ATCC 10536
  MIC: 0.0125 µg/mL (≈ 0.0342 µM)
[4]
  MIC: 0.0125 µg/mL (≈ 0.0342 µM)
P. mirabilis IID 994
  MIC: 0.0125 µg/mL (≈ 0.0342 µM)
P. morganii IID 602
  MIC: 0.05 µg/mL (≈ 0.137 µM)
[5]
  MIC: 0.05 µg/mL (≈ 0.137 µM)
[6]
  MIC: 0.05 µg/mL (≈ 0.137 µM)
[7]
  MIC: 0.2 µg/mL (≈ 0.547 µM)
[8]
  MIC: 0.025 µg/mL (≈ 0.0683 µM)
[9]
  MIC: 0.05 µg/mL (≈ 0.137 µM)
[10]
  MIC: 0.1 µg/mL (≈ 0.273 µM)
B. fragilis 8503
  MIC: 0.39 µg/mL (≈ 1.07 µM)
F. varium KYA 8501
  MIC: 0.78 µg/mL (≈ 2.13 µM)
[11]
  MIC: 0.1 µg/mL
[12]
  MIC: 1.56 µg/mL
C. ramosum
  MIC: 0.78 µg/mL
Pst. microns UPI 5464-1
  MIC: 0.05 µg/mL
[13]
  MIC: 0.05 µg/mL (≈ 0.137 µM)
S. pyogenes
  MIC: 0.1 µg/mL (≈ 0.273 µM)
S. pneumoniae
  MIC: 0.1 µg/mL (≈ 0.273 µM)
N. gonorrhoeae
  MIC: 0.013 µg/mL (≈ 0.0355 µM)
B. catarrhalis
  MIC: 0.05 µg/mL (≈ 0.137 µM)
E. coli
  MIC: 0.013 µg/mL (≈ 0.0355 µM)
S. aureus
  MIC: 0.05 µg/mL (≈ 0.137 µM)
P. mirabilis
  MIC: 0.05 µg/mL (≈ 0.137 µM)
P. vulgaris
  MIC: 0.05 µg/mL (≈ 0.137 µM)
Alcaligenes sp.
  MIC: 0.78 µg/mL (≈ 2.13 µM)
E. cloacae IID 977; [14]
  Frequency of spontaneous resistant mutants: 6.7 × 10^-10
E. cloacae IID 977; [15]
  Frequency of spontaneous resistant mutants: <6.7 × 10^-10
S. marcescens IID 618; [16]
  Frequency of spontaneous resistant mutants: 1.5 × 10^-8
S. marcescens IID 618; [17]
  Frequency of spontaneous resistant mutants: <1.0 × 10^-9
P. aeruginosa IFO 1210; [18]
  Frequency of spontaneous resistant mutants: <6.7 × 10^-10
P. aeruginosa IFO 1210; [19]
  Frequency of spontaneous resistant mutants: <6.7 × 10^-10

## CC1CN(c2c(F)cc3c(=O)c(C(=O)O)cn(C4CC4)c3c2Cl)CCN1 (stereo not shown) [Ref.2, 8-Chloro-1-cyclopropyl-6-fluoro-1,4-dihydro-7-(3-methyl-1-piperazinyl)-4-oxo-3-quinolinecarboxylic acid]
[1]
  MIC: 0.1 µg/mL
[2]
  MIC: 0.39 µg/mL (≈ 1.03 µM)
S. pyogenes IID 692
  MIC: 0.78 µg/mL
S. pneumoniae IID 552
  MIC: 0.39 µg/mL (≈ 1.03 µM)
E. faecalis IID 682
  MIC: 0.39 µg/mL
[3]
  MIC: ≤ 0.006 µg/mL
E. coli ATCC 10536
  MIC: 0.0125 µg/mL (≈ 0.0329 µM)
[4]
  MIC: 0.0125 µg/mL (≈ 0.0329 µM)
P. mirabilis IID 994
  MIC: 0.0125 µg/mL (≈ 0.0329 µM)
P. morganii IID 602
  MIC: 0.05 µg/mL (≈ 0.132 µM)
[5]
  MIC: 0.05 µg/mL (≈ 0.132 µM)
[6]
  MIC: 0.05 µg/mL (≈ 0.132 µM)
[7]
  MIC: 0.2 µg/mL (≈ 0.527 µM)
[8]
  MIC: 0.05 µg/mL (≈ 0.132 µM)
[9]
  MIC: 0.05 µg/mL (≈ 0.132 µM)
[10]
  MIC: 0.39 µg/mL (≈ 1.03 µM)
B. fragilis 8503
  MIC: 0.78 µg/mL (≈ 2.05 µM)
F. varium KYA 8501
  MIC: 3.13 µg/mL (≈ 8.24 µM)
[11]
  MIC: 0.2 µg/mL
[12]
  MIC: 3.13 µg/mL
C. ramosum
  MIC: 3.13 µg/mL
Pst. microns UPI 5464-1
  MIC: 0.2 µg/mL
[13]
  MIC: 0.2 µg/mL (≈ 0.527 µM)
S. pyogenes
  MIC: 0.39 µg/mL (≈ 1.03 µM)
S. pneumoniae
  MIC: 0.78 µg/mL (≈ 2.05 µM)
N. gonorrhoeae
  MIC: 0.006 µg/mL (≈ 0.0158 µM)
B. catarrhalis
  MIC: 0.05 µg/mL (≈ 0.132 µM)
E. coli
  MIC: 0.025 µg/mL (≈ 0.0658 µM)
S. aureus
  MIC: 0.1 µg/mL (≈ 0.263 µM)
P. mirabilis
  MIC: 0.05 µg/mL (≈ 0.132 µM)
P. vulgaris
  MIC: 0.05 µg/mL (≈ 0.132 µM)
Alcaligenes sp.
  MIC: 6.25 µg/mL (≈ 16.5 µM)
E. cloacae IID 977; [14]
  Frequency of spontaneous resistant mutants: 3.1 × 10^-7
E. cloacae IID 977; [15]
  Frequency of spontaneous resistant mutants: <6.7 × 10^-10
S. marcescens IID 618; [16]
  Frequency of spontaneous resistant mutants: 1.0 × 10^-7
S. marcescens IID 618; [17]
  Frequency of spontaneous resistant mutants: <1.0 × 10^-9
P. aeruginosa IFO 1210; [18]
  Frequency of spontaneous resistant mutants: 7.7 × 10^-8
P. aeruginosa IFO 1210; [19]
  Frequency of spontaneous resistant mutants: <6.7 × 10^-10
